Experimental data reported in US20190224186A1, “TREATMENT OF MULTIPLE SCLEROSIS WITH CHS-131” (InteKrin Therapeutics, Inc., priority 2016, published 2019).

Experiments:
Type in all cases: in vivo, human
[1] = tested on: MS patients in the relapsing and remitting course of the disease (RRMS); assay: Phase 2 trial: new and enlarged T2 lesions over 6 months; conditions: for mean number of new and enlarged T2 lesions over 6 months: n=76
Procedure: A Phase 2, randomized, double-blind, placebo-controlled, multi-center clinical trial of CHS-131 for the treatment of multiple sclerosis (MS) was conducted. The primary endpoint was the number of new gadolinium contrast-enhancing (CE) T1-weighted lesions on monthly MRI over 6 months. The study enrolled MS patients in the relapsing and remitting course of the disease (RRMS) who had been diagnosed within ≤3 years of enrollment. Patients had to be treatment-naïve, have ≥1 gadolinium-positive lesion within 12 months of enrollment, and have an Expanded Disability Status Score (EDSS) of 0-6 at screening. Part 1 was a double-blind, parallel-group, 6-month study. Patients were randomized to oral CHS-131 at 3 mg or 1 mg or placebo in a 1:1:1 ratio at 21 sites in Russia. Monthly MRIs were read in a blinded fashion at the Buffalo Neuroimaging and Analysis Center, Buffalo, N.Y., USA. Part 2 is an open label, 6-month, safety extension study, in which all subjects transition to 1 mg CHS-131 daily, to evaluate clinical response, CE lesions on MM, and safety. The mean number of new and enlarged lesions over 6 months was 3.43 for 3 mg CHS131 (n=76), 4.21 for 1 mg CHS131 (n=76), and 4.89 for placebo (n=74). The response was dose-dependent.

[2] = tested on: MS patients in the relapsing and remitting course of the disease (RRMS); assay: Phase 2 trial: Expanded Disability Status Scale (EDSS) score
From the text: Several methods are used to diagnose and determine the impact of multiple sclerosis on patients. The McDonald criteria are used to diagnose multiple sclerosis on clinical grounds and MRI lesions consistent with MS. The Expanded Disability Status Scale (EDSS) quantifies disability in eight Functional Systems (FS) and allows neurologists to assign a Functional System Score (FSS) in each of these. The Multiple Sclerosis Functional Composite (MSFC) is a three-part, standardized, quantitative, assessment of function. The three components of the MSFC measure leg function/ambulation, arm/hand function, and cognitive function. The EDSS and MSFC scores are useful to determine if a drug improves or prevents loss of cognitive or physical function of a patient with MS. A drug is said to reduce MS-related dysfunction if it reduces a patient's EDSS or MSFC score. The study enrolled MS patients in the relapsing and remitting course of the disease (RRMS) who had been diagnosed within ≤3 years of enrollment. Patients had to be treatment-naïve, have ≥1 gadolinium-positive lesion within 12 months of enrollment, and have an Expanded Disability Status Score (EDSS) of 0-6 at screening. Part 1 was a double-blind, parallel-group, 6-month study. Patients were randomized to oral CHS-131 at 3 mg or 1 mg or placebo in a 1:1:1 ratio at 21 sites in Russia. Monthly MRIs were read in a blinded fashion at the Buffalo Neuroimaging and Analysis Center, Buffalo, N.Y., USA. Part 2 is an open label, 6-month, safety extension study, in which all subjects transition to 1 mg CHS-131 daily, to evaluate clinical response, CE lesions on MM, and safety. The EDSS scores are reported for the full analysis population in the table below.

[3] = tested on: MS patients in the relapsing and remitting course of the disease (RRMS); assay: Phase 2 trial: whole brain volume by serial MRIs
Procedure: Whole brain volume was evaluated at baseline and six months in this study. Neural atrophy was measured by serial determination of brain volume using serial MRIs.

[4] = tested on: MS patients in the relapsing and remitting course of the disease (RRMS); assay: Trend line of change in cortical volume versus EDSS scores; conditions: 6-month time point
From the text: To evaluate the connection between cortical volume loss and dysfunction, the reduction in volume loss was compared to EDSS scores of the MS patients. FIGS. 5 and 6 show the relationship between the change in cortical volume and EDSS scores at 3 months and 6 months, respectively.

With O=S(=O)(Nc1cc(Cl)c(Oc2cnc3ccccc3c2)c(Cl)c1)c1ccc(Cl)cc1Cl [CHS-131] as the compound, how does the “reduction in T2 lesions compared to placebo (LSMeans analysis)” value ([1]; 1 mg) read?
Its value is 14%.

And the “mean number of new and enlarged T2 lesions over 6 months” value ([1]; 1 mg)?
Its value is 4.21.

What about the “mean number of new and enlarged T2 lesions over 6 months” value ([1]; 3 mg) of the same compound?
The value was 3.43.

And the “reduction in T2 lesions compared to placebo (LSMeans analysis)” value ([1]; 3 mg, p=0.0767)?
The value was 30%.

What about the “Month 3 EDSS % change from baseline” value ([2]; 1 mg) of the same compound?
Its value is −0.49%.

What about the “Month 6 EDSS % change from baseline” value ([2]; 1 mg) of the same compound?
The value was −2.94%.

And the “Month 3 EDSS Mean (SD)” value ([2]; 1 mg, n=74)?
The value was 2.03 (0.961).

And the “Month 6 EDSS Mean (SD)” value ([2]; 1 mg, n=74)?
Its value is 1.98 (0.974).

What about the “Month 3 EDSS % change from baseline” value ([2]; 3 mg) of the same compound?
Its value is −0.46%.

And the “Month 6 EDSS % change from baseline” value ([2]; 3 mg)?
The value was −4.59%.

And the “Month 6 EDSS Mean (SD)” value ([2]; 3 mg, n=73)?
The value was 2.08 (0.846).

What about the “Month 3 EDSS Mean (SD)” value ([2]; 3 mg, n=74) of the same compound?
The value was 2.17 (0.945).

And the “less neural volume loss compared to placebo” value ([3]; 1 mg daily, 6 months)?
The value was 13%.

What about the “brain volume lost over 6 months” value ([3]; 1 mg/day) of the same compound?
The value was 0.14%.

What about the “less parenchymal atrophy than the placebo treated cohort” value ([3]; 3 mg daily, 6 months) of the same compound?
The value was 50%.

And the “neural parenchyma volume lost over 6 months” value ([3]; 3 mg/day)?
Its value is 0.08%.

And the “trend line slope, change in cortical volume vs EDSS score” value ([4]; 1 mg)?
The value was −0.138.

And the “trend line slope, change in cortical volume vs EDSS score” value ([4]; 3 mg)?
Its value is 0.080.
